Experimental data reported in US10856562B2, “Flavor composition and edible compositions containing same” (MARS, INCORPORATED, priority 2013, dated 2020).
Square brackets hold non-standard residues; d marks the D form. Ends that are not written are not given here. pGlu = O=C1CC[C@@H](C(=O)O)N1

Test system: panelists
Assay: Attribute perception scores of flavor enhancers in solution (Example 6)
Type: in vivo, human
Design: key to Metallic / Numbing / Atringent / Salt / Sweet / Sour / Bitter / Umami / Sour, mean evaluation score in solution / Numbing, mean evaluation score in solution / Astringent / Umami FF: 15-point intensity scale, 0 = none, 15 = very strong
Conditions: for Astringent / Bitter / Flinty/Mineral / Metallic / Numbing / Salt / Sour / Sweet / Umami / Umami FF / Atringent / Mineral/Flinty / Umami/brothy: solution
Method: Descriptive attributes (e.g., taste, flavor and chemical feeling factors) of three use levels of pGlu-Cys (FE-35), pGlu-Cys-Gly (FE-36), pGlu-Cys-Cys (FE-37), pGlu-Cys-Val (FE-38) and pGlu-Val-Cys (UE-30) flavor composition peptides were determined. The three use levels were as follows: 1.0 ppb, 10.0 ppb and 100.0 ppb.
Data was collected for the attributes of the product in-mouth for the use levels according to the following protocol: • The samples were analyzed for flavor by six to nine members of a panel, trained and experienced in flavor evaluation using the Spectrum™ method. Samples were evaluated across multiple panel sessions. • The strength of each attribute was rated on a 15-point scale, where 0=none and 15=very strong. • This scale incorporates the ability to use tenths of a point and therefore has the potential of 150 scale differentiations. • The scale may be expanded beyond 15 points to include extreme ratings if necessary.
A summary of the concentrations of NaCl, water and flavor composition peptides in the solution samples is described in table 24.
The panelists evaluated each sample for the attributes described by table 25.

[1] = 10.0 ppb, mean evaluation score
[2] = 100.0 ppb, mean evaluation score
[3] = Concentration 1, MAX, 15-point scale
[4] = Concentration 1, MEAN, 15-point scale
[5] = Concentration 1, MIN, 15-point scale
[6] = Concentration 10, MAX, 15-point scale
[7] = Concentration 10, MEAN, 15-point scale
[8] = Concentration 10, MIN, 15-point scale
[9] = Concentration 100, MAX, 15-point scale
[10] = Concentration 100, MEAN, 15-point scale
[11] = Concentration 100, MIN, 15-point scale

Question: Which “Patterns of attributes in solution as concentrations increase” value (1.0 to 100 ppb) does the source give for [pGlu]-Cys-Gly [FE-36] here?
Answer: The value was “No distinct patterns are seen”.

Question: What about the Astringent (1.0 ppb, mean evaluation score) of the same substance?
Answer: Its Astringent is 0.0.

Question: And the Bitter (1.0 ppb, mean evaluation score)?
Answer: The Bitter was 0.0.

Question: And the Flinty/Mineral (1.0 ppb, mean evaluation score)?
Answer: Its Flinty/Mineral is 0.7.

Question: What about the Metallic (1.0 ppb, mean evaluation score) of the same substance?
Answer: Its Metallic is 0.1.

Question: What about the Numbing (1.0 ppb, mean evaluation score) of the same substance?
Answer: The Numbing was 0.0.

Question: What about the Salt (1.0 ppb, mean evaluation score) of the same substance?
Answer: Its Salt is 2.6.

Question: What about the Sour (1.0 ppb, mean evaluation score) of the same substance?
Answer: The Sour was 0.0.

Question: What about the Sweet (1.0 ppb, mean evaluation score) of the same substance?
Answer: Its Sweet is 0.2.

Question: What about the Umami (1.0 ppb, mean evaluation score) of the same substance?
Answer: The Umami was 0.3.

Question: And the “Umami FF” value (1.0 ppb, mean evaluation score)?
Answer: Its value is 1.5.

Question: What about the Astringent [1] of the same substance?
Answer: The Astringent was 0.0.

Question: And the Bitter [1]?
Answer: The Bitter was 0.0.

Question: And the Flinty/Mineral [1]?
Answer: Its Flinty/Mineral is 0.8.

Question: What about the Metallic [1] of the same substance?
Answer: The Metallic was 0.0.

Question: And the Numbing [1]?
Answer: The Numbing was 0.0.

Question: And the Salt [1]?
Answer: The Salt was 1.9.

Question: And the Sour [1]?
Answer: Its Sour is 0.0.

Question: And the Sweet [1]?
Answer: The Sweet was 0.0.

Question: And the Umami [1]?
Answer: The Umami was 0.1.

Question: What about the “Umami FF” value [1] of the same substance?
Answer: The value was 0.9.

Question: What about the Astringent [2] of the same substance?
Answer: Its Astringent is 0.0.

Question: And the Bitter [2]?
Answer: Its Bitter is 0.0.

Question: What about the Flinty/Mineral [2] of the same substance?
Answer: Its Flinty/Mineral is 0.8.

Question: And the Metallic [2]?
Answer: Its Metallic is 0.0.

Question: And the Numbing [2]?
Answer: Its Numbing is 0.0.

Question: What about the Salt [2] of the same substance?
Answer: The Salt was 2.1.

Question: And the Sour [2]?
Answer: The Sour was 0.0.

Question: And the Sweet [2]?
Answer: The Sweet was 0.0.

Question: What about the Umami [2] of the same substance?
Answer: Its Umami is 0.0.

Question: What about the “Umami FF” value [2] of the same substance?
Answer: Its value is 1.6.

Question: And the Atringent [3]?
Answer: Its Atringent is 0.0.

Question: What about the Bitter [3] of the same substance?
Answer: The Bitter was 0.0.

Question: What about the Metallic [3] of the same substance?
Answer: Its Metallic is 0.8.

Question: And the Mineral/Flinty [3]?
Answer: Its Mineral/Flinty is 1.0.

Question: What about the Numbing [3] of the same substance?
Answer: Its Numbing is 0.0.

Question: And the Salt [3]?
Answer: Its Salt is 3.0.

Question: And the Sour [3]?
Answer: Its Sour is 0.0.

Question: And the Sweet [3]?
Answer: The Sweet was 1.0.

Question: And the Umami [3]?
Answer: Its Umami is 2.0.

Question: What about the Umami/brothy [3] of the same substance?
Answer: Its Umami/brothy is 1.0.

Question: What about the Atringent [4] of the same substance?
Answer: Its Atringent is 0.0.

Question: And the Bitter [4]?
Answer: Its Bitter is 0.0.

Question: What about the Metallic [4] of the same substance?
Answer: Its Metallic is 0.1.

Question: And the Mineral/Flinty [4]?
Answer: The Mineral/Flinty was 0.7.

Question: What about the Numbing [4] of the same substance?
Answer: The Numbing was 0.0.

Question: And the Salt [4]?
Answer: The Salt was 2.6.

Question: What about the Sour [4] of the same substance?
Answer: The Sour was 0.0.

Question: What about the Sweet [4] of the same substance?
Answer: Its Sweet is 0.2.

Question: What about the Umami [4] of the same substance?
Answer: Its Umami is 1.5.

Question: And the Umami/brothy [4]?
Answer: Its Umami/brothy is 0.3.

Question: What about the Atringent [5] of the same substance?
Answer: The Atringent was 0.0.

Question: And the Bitter [5]?
Answer: The Bitter was 0.0.

Question: What about the Metallic [5] of the same substance?
Answer: Its Metallic is 0.0.

Question: And the Mineral/Flinty [5]?
Answer: The Mineral/Flinty was 0.0.

Question: And the Numbing [5]?
Answer: Its Numbing is 0.0.

Question: And the Salt [5]?
Answer: The Salt was 2.5.

Question: And the Sour [5]?
Answer: Its Sour is 0.0.

Question: And the Sweet [5]?
Answer: The Sweet was 0.0.

Question: And the Umami [5]?
Answer: The Umami was 1.0.

Question: And the Umami/brothy [5]?
Answer: Its Umami/brothy is 0.0.

Question: And the Atringent [6]?
Answer: Its Atringent is 0.0.

Question: What about the Bitter [6] of the same substance?
Answer: The Bitter was 0.0.

Question: What about the Metallic [6] of the same substance?
Answer: The Metallic was 0.0.

Question: And the Mineral/Flinty [6]?
Answer: Its Mineral/Flinty is 1.5.

Question: What about the Numbing [6] of the same substance?
Answer: The Numbing was 0.0.

Question: What about the Salt [6] of the same substance?
Answer: The Salt was 2.3.

Question: And the Sour [6]?
Answer: Its Sour is 0.0.

Question: What about the Sweet [6] of the same substance?
Answer: The Sweet was 0.0.

Question: And the Umami [6]?
Answer: The Umami was 2.0.

Question: And the Umami/brothy [6]?
Answer: Its Umami/brothy is 0.8.

Question: What about the Atringent [7] of the same substance?
Answer: Its Atringent is 0.0.

Question: And the Bitter [7]?
Answer: The Bitter was 0.0.

Question: What about the Metallic [7] of the same substance?
Answer: Its Metallic is 0.0.

Question: What about the Mineral/Flinty [7] of the same substance?
Answer: The Mineral/Flinty was 0.8.

Question: And the Numbing [7]?
Answer: The Numbing was 0.0.

Question: What about the Salt [7] of the same substance?
Answer: The Salt was 1.9.

Question: And the Sour [7]?
Answer: Its Sour is 0.0.

Question: And the Sweet [7]?
Answer: The Sweet was 0.0.

Question: What about the Umami [7] of the same substance?
Answer: The Umami was 0.9.

Question: And the Umami/brothy [7]?
Answer: Its Umami/brothy is 0.1.

Question: What about the Atringent [8] of the same substance?
Answer: Its Atringent is 0.0.

Question: And the Bitter [8]?
Answer: The Bitter was 0.0.

Question: And the Metallic [8]?
Answer: The Metallic was 0.0.

Question: What about the Mineral/Flinty [8] of the same substance?
Answer: Its Mineral/Flinty is 0.0.

Question: What about the Numbing [8] of the same substance?
Answer: Its Numbing is 0.0.

Question: And the Salt [8]?
Answer: Its Salt is 1.5.

Question: And the Sour [8]?
Answer: Its Sour is 0.0.

Question: And the Sweet [8]?
Answer: The Sweet was 0.0.

Question: And the Umami [8]?
Answer: The Umami was 0.0.

Question: And the Umami/brothy [8]?
Answer: The Umami/brothy was 0.0.

Question: What about the Atringent [9] of the same substance?
Answer: Its Atringent is 0.0.

Question: And the Bitter [9]?
Answer: Its Bitter is 0.0.

Question: What about the Metallic [9] of the same substance?
Answer: The Metallic was 0.0.

Question: And the Mineral/Flinty [9]?
Answer: Its Mineral/Flinty is 1.0.

Question: What about the Numbing [9] of the same substance?
Answer: Its Numbing is 0.0.

Question: And the Salt [9]?
Answer: The Salt was 3.0.

Question: What about the Sour [9] of the same substance?
Answer: The Sour was 0.0.

Question: What about the Sweet [9] of the same substance?
Answer: Its Sweet is 0.0.

Question: And the Umami [9]?
Answer: The Umami was 3.0.

Question: And the Umami/brothy [9]?
Answer: Its Umami/brothy is 0.0.

Question: What about the Atringent [10] of the same substance?
Answer: Its Atringent is 0.0.

Question: What about the Bitter [10] of the same substance?
Answer: Its Bitter is 0.0.

Question: What about the Metallic [10] of the same substance?
Answer: Its Metallic is 0.0.

Question: What about the Mineral/Flinty [10] of the same substance?
Answer: Its Mineral/Flinty is 0.8.

Question: What about the Numbing [10] of the same substance?
Answer: Its Numbing is 0.0.

Question: What about the Salt [10] of the same substance?
Answer: The Salt was 2.1.

Question: And the Sour [10]?
Answer: The Sour was 0.0.

Question: And the Sweet [10]?
Answer: The Sweet was 0.0.

Question: What about the Umami [10] of the same substance?
Answer: The Umami was 1.6.

Question: What about the Umami/brothy [10] of the same substance?
Answer: Its Umami/brothy is 0.0.

Question: What about the Atringent [11] of the same substance?
Answer: Its Atringent is 0.0.

Question: And the Bitter [11]?
Answer: The Bitter was 0.0.

Question: What about the Metallic [11] of the same substance?
Answer: Its Metallic is 0.0.

Question: And the Mineral/Flinty [11]?
Answer: Its Mineral/Flinty is 0.0.

Question: And the Numbing [11]?
Answer: The Numbing was 0.0.

Question: What about the Salt [11] of the same substance?
Answer: The Salt was 1.5.

Question: What about the Sour [11] of the same substance?
Answer: Its Sour is 0.0.

Question: And the Sweet [11]?
Answer: Its Sweet is 0.0.

Question: What about the Umami [11] of the same substance?
Answer: Its Umami is 0.5.

Question: What about the Umami/brothy [11] of the same substance?
Answer: The Umami/brothy was 0.0.
